From patent publication US20020022586A1, “Method for treating a patient with neoplasia by treatment with a pyrimidine analog” (priority 1998, published 2002)
Like-named read-outs stand apart in the source and are kept apart here. One block for each compound: values may come before it.

Legend:
HT-29 cells [1] = assay: HT-29 tumor cell growth inhibition, SRB assay; format: cell-based, human; parameters: Growth Inhibition: key to the marks not given beside the values; details: for Growth inhibitory activity, % Inhibition at 100 μM / inhibition at 100 µM: 100 μM single dose; for IC50 / inhibition at 100 µM: Homo sapiens; for IC50: SRB assay; for inhibition at 100 µM: HT-29, read-out: Growth inhibitory activity, % Inhibition at 100 μM
cGMP-PDE = system: T1, cGMP-PDE; assay: cGMP-PDE inhibition assay, enzyme from HT-29 tumor cells; format: biochemical, human; details: 100 μM
T1 construct: other: 10 μM; other: 100 μM; other: enzyme from HT-29 cells; other: 20 μM

HT-29 cells [2] = assay: Apoptosis by DNA fragmentation assay in HT-29 cells; format: cell-based, human
[3] = system: PDE peak B (novel cGMP-specific PDE); assay: cGMP hydrolysis by PDE peak B isolated from SW-480 cells; format: biochemical, human; details: 0.25 μM 3H-cGMP
PDE peak A (PDE5) = biological target: T2, PDE peak A (PDE5) (Homo sapiens, UniProt O76074); assay: cGMP hydrolysis by PDE peak A isolated from SW-480 cells; format: biochemical
T2 construct: SW-480 cells are collected and homogenized; endogenous in cells; host or cells: SW-480 human colon adenocarcinoma cells; supernatant of homogenate fractionated on DEAE-Trisacryl M

MDA-MB-435 = assay: Growth inhibition of various cell lines (Table 5); format: cell-based; details: Homo sapiens
Method: (§1) To show the effectiveness of cGMP-specific PDE inhibition on various forms of neoplasia, compounds were tested on numerous cell lines. […] The IC50 values were determined by the SRB assay. […] Therefore, compounds selected for cGMP-specific PDE inhibition in combination with a pyrimidine analog should be useful for treating neoplasia, in particular breast, colorectal and pancreatic cancers.

HCT-15 = assay: Growth inhibition of various cell lines (Table 5); format: cell-based; details: Homo sapiens
Method: as §1

DU-145 = assay: Growth inhibition of various cell lines (Table 5); format: cell-based; details: Homo sapiens
Method: as §1

[4] = system: premalignant lesions in mouse mammary gland organ culture; assay: Mammary gland organ culture model; format: cell-based; details: for Mammary Gland Organ Culture: activity profile; for inhibition of premalignant lesions: mammary gland organ culture; on mammary gland organ culture: key: −: Not active; +: Slightly active; ++: Moderately active; +++: Strongly active; ++++: Highly active
Method: For example, female BALB/c mice can be treated with a combination of estradiol and progesterone daily, in order to prime the glands to be responsive to hormones in vitro. The animals are sacrificed and thoracic mammary glands are excised aseptically and incubated for ten days in growth media supplemented with insulin, prolactin, hydrocortisone, and aldosterone. DMBA (7,12-dimethylbenz(a)anthracene) is added to medium to induce the formation of premalignant lesions. Fully developed glands are then deprived of prolactin, hydrocortisone, and aldosterone, resulting in the regression of the glands but not the premalignant lesions.
The test compound is dissolved in DMSO and added to the culture media for the duration of the culture period. At the end of the culture period, the glands are fixed in 10% formalin, stained with alum carmine, and mounted on glass slides. The extent of the area occupied by the mammary lesions can be quantitated by projecting an image of the gland onto a digitation pad. The area covered by the gland is traced on the pad and considered as 100% of the area. The space covered by each of the unregressed structures is also outlined on the digitization pad and quantitated by the computer.
The incidence of forming mammary lesions is the ratio of the glands with mammary lesions to […]. The incidence of mammary lesions in test compound treated glands is compared with that of the untreated glands.
Mammary gland organ culture experiments were performed as previously described (Mehta and Moon, Cancer Research, 46: 5832-5835, 1986). […] The data support the hypothesis that cyclooxygenase inhibition is not necessary for the anti-neoplastic properties of desired compounds.

HT-29, Colon = assay: Growth inhibition of various cell lines (Table 5); format: cell-based; details: Homo sapiens
COX = COX inhibition; format: biochemical
[5] = Side effects of exisulind on administration; format: in vivo
From the text: This effect is reversible, and liver enzymes return to normal levels when the administered dose of exisulind returns to the traditionally recommended level or when treatment is discontinued. The most serious side effect of pyrimidine analogs, on the other hand, is bone marrow suppression.

A-427, Lung = assay: Growth inhibition of various cell lines (Table 5); format: cell-based; details: Homo sapiens
Method: as §1

[6] = system: Human Prostate Carcinoma PC3; assay: Growth inhibition of various cell lines (Table 5); format: cell-based
Method: as §1

HT-29 cells [7] = assay: cAMP levels in cultured HT-29 cells by radioimmunoassay; format: cell-based, human; details: HT-29 cells treated 30 minutes
From the text: It has been observed that a compound which is useful in the practice of this invention (i.e., one that selectively induces apoptosis in neoplastic cells, but not substantially in normal cells) follows a time course consistent with cGMP-specific PDE inhibition. […] The intracellular targets of these drug actions are being studied further, but current data support the concept that the initial rise in cGMP content and the subsequent fall in cAMP content precede apoptosis in neoplastic cells exposed to test compounds useful in this invention. To determine the cyclic AMP content in cell extracts, radioimmunoassay techniques similar to those described above for cGMP are used.

HT-29 cells [8] = assay: Apoptosis and necrosis by morphology (acridine orange/ethidium bromide) in HT-29 cells; format: cell-based, human
From the text: Following treatment with a test compound, cultures can be assayed for apoptosis and necrosis by fluorescent microscopy following labeling with acridine orange and ethidium bromide. The method for measuring apoptotic cell number has previously been described by Duke & Cohen, “Morphological And Biochemical Assays Of Apoptosis,” Current Protocols In Immunology, Coligan et al., eds., 3.17.1-3.17.16 (1992, which is incorporated herein by reference).
For example, floating and attached cells can be collected, and aliquots of cells can be centrifuged. The cell pellet can then be resuspended in media and a dye mixture containing acridine orange and ethidium bromide. The mixture can then be examined microscopically for morphological features of apoptosis.
Reference compounds and test compounds were analyzed for their cGMP-specific PDE inhibitory activity in accordance with the protocols for the assay, supra. […] Apoptotic and necrotic cell death was determined as previously described (Duke and Cohen, In: Current Protocols in Immunology, 3.17.1-3.17.16, New York, John Wiley and Sons, 1992). […] All data were collected from the same experiment.
The apoptosis inducing activity for a series of phosphodiesterase inhibitors was determined. HT-29 cell were treated for 6 days with various inhibitors of phosphodiesterase. Apoptosis and necrosis were determined morphologically after acridine orange and ethidium bromide labeling in accordance with the assay described, supra.

HT-29 cells [9] = assay: HT-29 growth inhibition by counting viable cells after trypan blue staining; format: cell-based, human; details: 120 μM, time course
Method: Growth inhibition (FIG. 9A, top) was measured by counting viable cells after trypan blue staining. Apoptosis (FIG. 9B, bottom) was measured by morphological determination following staining with acridine orange and ethidium bromide as described previously (Duke and Cohen, In: Current Protocols in Immunology, 3.17.1-3.17.16, New York, John Wiley and Sons, 1992). […] All data were collected from the same experiment.

HT-29 cells [10] = assay: cGMP levels in cultured HT-29 cells by radioimmunoassay; format: cell-based, human; details: HT-29 cells treated 30 minutes
MCF7/S, Breast = assay: Growth inhibition of various cell lines (Table 5); format: cell-based; details: Homo sapiens, MCF7S
Method: as §1

[11] = 144 h, HT-29, 6 days, PDE inhibitors, read-out: Growth inhibition (IC50)
[12] = cGMP hydrolysis, 0.25 μM 3H-cGMP

Compound: CC1=C(CC(=O)O)c2cc(F)ccc2/C1=C\c1ccc(Cl)cc1 [C, (Z)-5-Fluoro-2-methyl-1-(p-chlorobenzylidene)-3-acetic acid]
Growth inhibitory activity, % Inhibition at 100 μM (HT-29 cells [1]): 80%
cGMP PDE % Inhibition at 100 μM (cGMP-PDE): <25%

Compound: CCCCCC[C@@H]([C@@H](C)O)n1cnc2c(N)ncnc21 (racemic) [EHNA, reference compound]
Apoptosis inducing activity, Fold induction at 100 μM (HT-29 cells [2]): <2.0 fold
IC50 [3]: 3.7 µM

IC50 (HT-29 cells [1]; [11]): > 100 µM
Compound: CCCOc1ccccc1-c1nc2nn[nH]c2c(=O)[nH]1 [Zaprinast, reference compound]
inhibition at 100 µM (HT-29 cells [1]): < 50%

EC50 (HT-29 cells [2]; Homo sapiens, HT-29, 48 hours, DNA fragmentation, read-out: EC50 for apoptosis induction): 0.05 µM
IC50 (PDE peak A (PDE5); [12]): 0.38 µM
IC50 [3]: 0.37 µM
IC50 (HT-29 cells [1]; HT-29, 144 h, six days, read-out: IC50 for growth inhibition of HT-29 cells): 0.04 µM
IC50 (MDA-MB-435): 0.04 µM
IC50 (HCT-15): 0.6 µM
IC50 (DU-145): 0.1 µM
IC50 (HT-29, Colon): 0.1 µM
Compound: COc1cc(/C=C2/C(C)=C(CC(=O)NCc3ccccc3)c3cc(F)ccc32)cc(OC)c1OC [Compound E, (Z)-5-Fluoro-2-methyl-1-(3,4,5-trimethoxybenzylidene)-3-indenylacetamide, N-benzyl]
inhibition at 100 µM (HT-29 cells [1]): 62%
Growth Inhibition (HT-29 cells [1]; activity profile): ++++
Mammary Gland Organ Culture [4]: ++++
cGMP PDE % Inhibition at 100 μM (cGMP-PDE): 75%
COX Inhibition (COX; 100 μM): did not inhibit COX
COX Inhibition (COX; activity profile): −

Compound: rac-(E)-1-(butan-1′,4′-olido)-[3′,4′:1,2]-6-fluoro-2-methyl-3-(p-methylsulfonylbenzylidene)-1 S-indanyl-glutathione)
COX Inhibition (COX; activity profile): −

IC50 [6]: 82 µM
IC50 (HT-29, Colon): 120 µM
Compound: CC1=C(CC(=O)O)c2cc(F)ccc2/C1=C\c1ccc(S(C)(=O)=O)cc1 [Exisulind, (Z)-5-fluoro-2-methyl-1-[[4-(methylsulfonyl)phenyl]methylene]indene-3-yl acetic acid]
side effects at recommended dose ([5]; 300-400 mg/day): no significant side effects
liver enzymes at doses higher than recommended ([5]; doses higher than the recommended therapeutic levels, reversible): elevated levels of liver enzymes
IC50 (A-427, Lung): 130 µM
inhibition of premalignant lesions [4]: effectively inhibit the formation of premalignant lesions
COX Inhibition (COX; activity profile): −

Compound: CC(=O)NC(CSC12CC(=O)OC1(C)/C(=C/c1ccc(S(C)(=O)=O)cc1)c1ccc(F)cc12)C(=O)O (racemic) [D, rac-(E)-1-(butan-1′,4′-olido)-[3′,4′:1,2]-6-fluoro-2-methyl-3-(p-methylsulfonylbenzylidene)-1S-indanyl-N-acetylcysteine]
Growth inhibitory activity, % Inhibition at 100 μM (HT-29 cells [1]): 78%
COX Inhibition (COX; activity profile): −

IC50 (PDE peak A (PDE5); [12]): 31 µM
IC50 [3]: > 100 µM
Compound: CC1(C)C(=O)Nc2ccc(C3=NNC(=O)CC3)cc21 [Indolidan]

Compound: COc1ccc(C2CNC(=O)C2)cc1OC1CCCC1 (stereo not shown) [Rolipram]
effect on cAMP levels (HT-29 cells [7]): increased cAMP levels
IC50 [3]: > 100 µM

Compound: rac-threo-(E)-1-(N,N′-diethylaminoethanethio)-1-(butan-1′,4′-olido)-[3′,4′:1,2′]-6-fluoro-2-methyl-3-(p-methylsulfonylbenzylidene)-indan
Apoptosis inducing activity, Fold induction at 100 μM (HT-29 cells [2]): <2.0 fold
Growth inhibitory activity, % Inhibition at 100 μM (HT-29 cells [1]): 68%
Mammary Gland Organ Culture [4]: ++
cGMP PDE % Inhibition at 100 μM (cGMP-PDE): <25%
COX Inhibition (COX; activity profile): −

Compound: O=C([O-])C1CCN(c2nc(NCc3ccc4c(c3)OCO4)c3cc(Cl)ccc3n2)CC1.[Na+] [Compound E4021, reference compound]
Growth inhibitory activity, % Inhibition at 100 μM (HT-29 cells [1]): <50%

Compound: CC1=C(CC(=O)O)c2cc(F)ccc2/C1=C/c1ccc([S+](C)[O-])cc1 (stereo not shown) [sulindac sulfoxide]
inhibition of premalignant lesions [4]: effectively inhibit the formation of premalignant lesions

IC50 (PDE peak A (PDE5); [12]): > 100 µM
IC50 [3]: > 100 µM
Compound: CCOC(=O)C1=C[C@]2(CC)CCCN3CCc4c(n1c1ccccc41)[C@@H]32 [Vinpocetine]

Compound: CCCc1nn(C)c2c(=O)[nH]c(-c3cc(S(=O)(=O)N4CCN(C)CC4)ccc3OCC)nc12 [Sildenafil, reference compound]
inhibition at 100 µM (HT-29 cells [1]): < 50%

Compound: CSc1ccc(/C=C2/C(C)=C(CC(=O)O)c3cc(F)ccc32)cc1 [Sulindac sulfide]
apoptosis by morphology (HT-29 cells [8]; 120 μM, time course): increase in apoptosis
growth inhibition, viable cell count (HT-29 cells [9]): capable of inhibiting tumor cell growth
increase of cGMP levels (HT-29 cells [10]): greater than 50%
IC50 (PDE peak A (PDE5)): 50 µM
IC50 (MCF7/S, Breast): 30 µM
Mammary Gland Organ Culture [4]: −
inhibition of premalignant lesions [4]: inactive
COX Inhibition (COX; activity profile): ++++

Compound: Clc1cccc(Nc2nnc(-c3ccccc3)c3ccccc23)c1 [MY5445, reference compound]
COX Inhibition (COX; activity profile): ++++

Compound: CC1=C(CC(=O)N(C2CCCCC2)C2CCCCC2)c2cc(F)ccc2/C1=C\c1ccc(S(C)(=O)=O)cc1 [F, (Z)-5-Fluoro-2-methyl-1-(p-methylsulfonylbenzylidene)-3-indenylacetamide, N,N′-dicyclohexyl]
COX Inhibition (COX; activity profile): −

Compound: ribo-(E)-1-Triazolo-[2′,3′:1″,3″]-1-(butan-1′,4′-olido)-[3′,4′:1,2]-6-fluoro-2-methyl-3-(p-methylsulfonylbenzylidene)-indan [G]
COX Inhibition (COX; activity profile): −

Compound: Cc1[nH]c(=O)c(C#N)cc1-c1ccncc1 [Milrinone]
% Apoptosis (HT-29 cells [8]; HT-29, 6 days, morphology): 18%
% Necrosis (HT-29 cells [8]; HT-29, 6 days, morphology): 0%
IC50 (HT-29 cells [1]; [11]): > 200 µM
